The values below come from paper PMC6864407 (Pharmacology Research & Perspectives, 2019).

In general, Tmax refers to the time at which the peak concentration occurs. For orientation: half-life means the time in which the quantity being followed falls by half. The term AUC denotes concentration integrated over time. The Cmax is the highest concentration seen after dosing.

Series [1] can be described thus: in vivo. As to conditions: rat, topical or ocular; for half-life: t1/2, rat.
Method: (§2) The both eyes (dosed eye and nondosed eye) were collected and washed by water, and then the eye tissues (the choroid/sclera and retina) were collected.
(§3) An aliquot of acetonitrile solution containing an internal standard was added to the plasma sample and mixed. After centrifugation, supernatant was mixed with 10 mmol/L ammonium acetate solution to prepare a sample for determination of drug concentration by liquid chromatography‐tandem mass spectrometry (LC/MS/MS). An aliquot of 50 vol% methanol was added to the eye tissues, and then homogenized by a beads shocker to prepare homogenate samples. An aliquot of the acetonitrile solution containing the internal standard was added to the homogenate samples and mixed. After centrifugation, supernatant was mixed with 10 mmol/L ammonium acetate solution to prepare samples for the determination of drug concentrations.
(§4) LC/MS/MS system consisted of ACQUITY UPLC system (Waters Corporation) and QTRAP6500 (AB SCIEX) was used for the determination of drug concentrations. The prepared samples were separated by ACQUITY UPLC peptide BEH C18 column (1.7 µm, 2.1 × 50 mm) (Waters Corporation, Milford, MA), with mobile phase A: 10 mmol/L ammonium acetate solution and mobile phase B: acetonitrile. After injection of the prepared samples to LC/MS/MS, the samples were eluted (0.2 mL/minutes) with 30% B followed 0.10 minutes isocratic period; 3.90 minutes linear gradient to 70% B; 0.01 minutes linear gradient to 30% B; and 1.49 minutes isocratic period. Multiple reaction monitoring was performed by using an atmospheric pressure chemical ionization probe, and monitor ion of regorafenib and pazopanib were 482.958/270.000 (m/z, Q1/Q3) and 438.184/356.900 (m/z, Q1/Q3), respectively.
(§5) The pharmacokinetic parameters of regorafenib and pazopanib in the eye tissues and plasma were calculated by average concentrations in the eye tissues and plasma. Maximum concentration (Cmax) and the time to reach Cmax (tmax) were obtained directly from the observed values. Log‐transformed concentrations were plotted against time. The elimination rate constant (ke) was estimated by linear least‐squares method using the last 2 or 3 observed data points. Apparent half‐life (t1/2) was obtained as ln2/ke. Area under the concentration vs time curve (AUC) from time 0 to the observed data point (AUC0‐t) was calculated using the linear trapezoidal method. AUC after the last data point was estimated by extrapolating with the ke and added up with AUC0‐t to calculate AUC from time 0 to infinity (AUC0‐∞).
In series [2] the test system is neovascular AMD. As to conditions: eye‐drop formulations; cited from earlier work.
Series [3] deals with choroidal neovascularization. The arrangement: method as in PMID 21620822. As to conditions: after ocular instillation in rats; cited from earlier work.
Series [4] has as its system laser‐induced CNV. Nature of the series: Laser‐induced monkey CNV model. Conditions: for Change in incidence of Grade 4 lesions between Day‐1 and Day35: Fisher's exact test, Day‐1 vs Day 35; for Percentage of Grade 4 lesion: aflibercept 500 μg/eye intravitreal once, mean of 6 eyes.
Method: Pharmacological study in laser‐induced monkey CNV model was conducted by referring to and optimizing the previous researches.28, 29, 30 Animals were allocated to groups to minimize bias in the incidence and severity of CNV lesions and body weight between the groups.
After the induction of mydriasis by instillation of Mydrin‐P ophthalmic solution has been confirmed, animals were anesthetized by intramuscular injection with a mixture solution of ketamine hydrochloride/xyladine (7/1, v/v). A fundus contact lens (Centralis Direct; Volk Optical Inc) was attached to the cornea with Scopisol solution and the position of the macula was confirmed. Laser was irradiated on the macula to induce CNV (8 sites per eye, 6 eyes per group). The laser irradiation conditions were as follows; wavelength: 532 nm, spot size: 80 μm, irradiation time: 0.1 seconds, and laser output: 1000 mW. The laser irradiation was conducted 21 days before the initiation of ocular instillation of test articles.
Aflibercept (500 μg/eye) was administered by intravitreal injection to the animals once 22 days after the laser irradiation.
In the aflibercept dosed group, fluorescein fundus angiography and CNV grade evaluation were conducted at the same time points in eye‐drops dosed groups.
Fluorescite Intravenous Injection 500 mg was administered into the cephalic vein under mydriasis and anesthesia. Photographs of fundus were taken with a fundus camera (VX‐10α; Kowa Co., Ltd., Aichi, Japan) approximately 1, 3, and 5 minutes after the administration of fluorescein. Each CNV lesion was graded as follows; Grade 1: no hyperfluorescence, Grade 2: hyperfluorescence without leakage, Grade 3: hyperfluorescence in the early (1 minute after administration of fluorescein) or midtransit (3 minutes after administration of fluorescein) images and late (5 minutes after administration of fluorescein) leakage, Grade 4: bright hyperfluorescence in the early or midtransit images and late leakage beyond the treated area in reference to the previous studies.28, 29, 30 The incidences of Grade 1, Grade 2, Grade 3 and Grade 4 lesions in the each eye (6 eyes per group) were calculated by the following equation, the incidence of grade lesion (%) = the number of grade lesions/ 8 × 100. The mean value of the incidences of Grade 4 lesions was calculated from 6 individual data in each group.
Fisher's exact test was performed for the incidence of Grade 4 lesions between Day‐1 and Day 35 in each group. MiTOX System (Mitsui E&S Systems Research Inc (former company name; Mitsui Zosen Systems Research Inc) was used for the statistical analysis at a two‐sided significance level of 5%.
Series [5] deals with melanin. The arrangement: method as in PMID 23385800. As to conditions: cited from earlier work.
For series [6], the system named is VEGF‐induced fluorescein leakage. On the set-up: method as in PMID 23169884. Conditions: ocular instillation in rabbits; cited from earlier work.
The nature of series [7]: Pharmacokinetic study in rats after single ocular instillation.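 On all read-outs here: drug levels in plasma and homogenized choroid/sclera and retina quantified by LC/MS/MS, parameters derived from mean concentrations, t1/2 from terminal log-linear slope, AUC via linear trapezoids.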 As to conditions: rat; for AUC0‐t / AUC0‐∞ / AUC: single ocular instillation, 10 μL/eye; for AUC0‐t / AUC0‐∞ / AUC / Concentration: regorafenib 21.2 mg/mL or pazopanib 4.9 mg/mL; for concentration at 0.5 h: topical; for half-life / Tmax / AUC: topical or ocular; for Concentration: choroid/sclera, 0.01 mL; for choroid/sclera concentration: 0.5 hours after administration.
Method: as §2, §3, §4, §5

Series [8] can be described thus: Pharmacokinetic study (ocular distribution) in monkeys after single ocular instillation. Conditions: monkey, 4 h, regorafenib 17.1 mg/mL (50 μL/eye) or pazopanib 5.0 mg/mL (30 μL/eye). As to the method: (§1) In the rabbit and monkey studies, sample preparation and determination of drug concentrations were performed in the same manner for the rat pharmacokinetic study.

Series [9] can be described thus: Pharmacokinetic study in rabbits after single ocular instillation. Conditions: rabbit, choroid/retina, 1.5 h, regorafenib 24.1 mg/mL or pazopanib 5.0 mg/mL, 0.02 mL. As to the method: as §1
Setting [10] is: choroid/sclera of the dosed eye.
The mark [11] stands for this setting: in vivo, choroid/sclera of dosed eye, single ocular instillation, regorafenib 21.2 mg/mL or pazopanib 4.9 mg/mL, 10 μL/eye.
Where [12] appears, read: in vivo, plasma, single ocular instillation, regorafenib 21.2 mg/mL or pazopanib 4.9 mg/mL, 10 μL/eye.

Take `Cc1ccc(Nc2nccc(N(C)c3ccc4c(C)n(C)nc4c3)n2)cc1S(N)(=O)=O.Cl` [Pazopanib, 5‐[[4‐[(2,3‐dimethylindazol‐6‐yl)‐methylamino]pyrimidin‐2‐yl]amino]‐2‐methylbenzenesulfonamide hydrochloride]: the Tmax in series [1] (setting [10]) worked out at 4 h; in [7] (plasma) it was 0.5 h; in series [7] (retina of the dosed eye), 120 h. In series [2], the “Clinical efficacy of eye‐drop formulation in neovascular AMD” value is recorded as “lack of efficacy”. Further, in [3], the “Effect on angiogenesis and vascular hyperpermeability” value was “reduced angiogenesis and vascular hyperpermeability”. In [4], the “Change in incidence of Grade 4 lesions between Day‐1 and Day35” value is listed as “no significant difference”. In [5], the Binding to melanin result is reported as “strongly binds to melanin”. Also, the “Suppression of VEGF‐induced fluorescein leakage in the posterior eye tissues” value in [6] was “failed to suppress”. The “AUC0‐t” value was 42 100 h × ng/g in series [7] (choroid/sclera of dosed eye) and 3450 ng·h/g in [7] (retina of dosed eye). For the same compound, the “AUC0‐∞” value is 112 000 h × ng/g in series [7] (choroid/sclera of dosed eye) and 6660 ng·h/g in series [7] (retina of dosed eye). Moreover, the concentration at 0.5 h in [7] (setting [10]) was determined as 293 ng/g; in [7] (choroid/sclera of the nondosed eye), 11.3 ng/g. In addition, the half-life in series [7] (setting [10]) is 245 h; in series [7] (plasma) it was 20.1 h; in series [7] (retina of the dosed eye, 4.9 mg/mL (10 μL/eye)), 159 h. Further, the AUC in series [7] (plasma, AUC0‐t) was 1280 ng·h/mL; in series [7] (plasma, AUC0‐∞), 1300 ng·h/mL. The Concentration entry in series [8] (cornea, nondosed eye) is recorded as “BLQ (<1) ng/g”.

Turning to `CNC(=O)c1cc(Oc2ccc(NC(=O)Nc3ccc(Cl)c(C(F)(F)F)c3)c(F)c2)ccn1.O` [Regorafenib, 4‐[4‐ ({[4‐Chloro‐3‐(trifluoromethyl)phenyl]carbamoyl}amino)‐3‐fluorophenoxy]‐N‐methylpyridine‐2‐carboxamide monohydrate], the AUC in series [1] (in vivo, AUC0‐t, plasma, single ocular instillation, regorafenib 21.2 mg/mL or pazopanib 4.9 mg/mL, 10 μL/eye) was 1010 ng·h/mL; in [1] (in vivo, AUC0‐∞, plasma, single ocular instillation, regorafenib 21.2 mg/mL or pazopanib 4.9 mg/mL, 10 μL/eye), 1060 ng·h/mL. The Cmax in [1] (setting [11]) was determined as 1310 ng/g; in series [1] (setting [12]), 38.6 ng/mL; in series [1] (in vivo, retina of dosed eye, single ocular instillation, regorafenib 21.2 mg/mL or pazopanib 4.9 mg/mL, 10 μL/eye), 28 ng/g. Also, the half-life in series [1] (setting [11]) was 29.7 h; in series [1] (setting [12]), 23.9 h. Further, the Tmax in series [1] (in vivo, tmax) was 0.5 h; in [1] (in vivo, tmax, plasma, single ocular instillation, regorafenib 21.2 mg/mL or pazopanib 4.9 mg/mL, 10 μL/eye), 7 h; in series [1] (in vivo, tmax, retina of dosed eye, single ocular instillation, regorafenib 21.2 mg/mL or pazopanib 4.9 mg/mL, 10 μL/eye), 7 h. Besides, the “Clinical efficacy of eye‐drop formulation in neovascular AMD” value in series [2] is “lack of efficacy”. The “AUC0‐t” value in [7] (choroid/sclera of dosed eye) was 15 300 h × ng/g; in series [7] (retina of dosed eye), 517 ng·h/g. Moreover, the “AUC0‐∞” value in series [7] (choroid/sclera of dosed eye) is given as 16 400 h × ng/g. The Concentration is on record as 552 ng/g in series [7] (dosed eye, 1.5 h); 340 ng/g in series [7] (dosed eye, 4 h); 29.1 ng/g in series [7] (nondosed eye, 1.5 h); 72.3 ng/g in series [7] (nondosed eye, 4 h); “BLQ (<3) ng/g” in series [8] (choroid, nondosed eye); 350 ng/g in series [8] (cornea, dosed eye). Moreover, the Concentration result was “BLQ (<3) ng/g” in series [8] (cornea, nondosed eye); 49.4 ng/g in series [8] (iris/ciliary body, dosed eye); “BLQ (<3) ng/g” in series [8] (iris/ciliary body, nondosed eye); “BLQ (<3) ng/g” in [8] (retina, dosed eye); “BLQ (<3) ng/g” in series [8] (retina, nondosed eye); “BLQ (<1) ng/g” in series [9] (dosed eye). The Concentration result in series [9] (nondosed eye) is on record as “BLQ (<1) ng/g”. Also, the choroid/sclera concentration in series [7] (dosed eye) was found to be 1310 ng/g; in [7] (nondosed eye) it was 129 ng/g.

As for “Aflibercept: 40 mg/mL EYLEA Injection For Intravitreal Injection; anti‐VEGF agent, positive control”, the “Percentage of Grade 4 lesion” value turned out to be 4.2% in series [4] (Day 8, pazopanib eye‐drops 5.0 mg/mL four times daily); 4.2% in series [4] (Day 15, pazopanib eye‐drops 5.0 mg/mL four times daily); 4.2% in series [4] (Day 22, pazopanib eye‐drops 5.0 mg/mL four times daily); 4.2% in series [4] (Day 29, pazopanib eye‐drops 5.0 mg/mL four times daily). Further, the “Change in incidence of Grade 4 lesions between Day‐1 and Day35” value in series [4] is “significant efficacy had been maintained until Day35”.
